Results taken from US10835840B2, “Methods for in situ separation of mixtures” (INTERNATIONAL SCIENTIFIC PTY LTD, priority 2015, dated 2020).
Where “and” joins values, the source holds several entries; their conditions need not be identical. Identical values can stand only once.

Key:
[1] = in vivo
Procedure: The subject's volar forearm or upper arm was delineated into two 3×3 cm square regions which were designated […]. […] After an absorption period of 30 minutes, the excess mixture was removed from each region by washing with water. The region was then tape stripped using the adapted procedure of Lademann et al (The tape stripping procedure—evaluation of some critical parameters. European Journal of Pharmaceutics and Biopharmaceutics 72 (2009) 317-323).

[2] = Tape stripping after applying niacinamide gel mixture with or without weak magnetic field (ETP008), mass spectrometry; format: in vivo; design: unit not given here
Description: ETP008—a linear array of displaced dipolar magnetic elements comprising strontium oxides dispersed in a PVC film base. The displaced dipolar magnetic elements were created in parallel with a pole flux of 450 Gauss. Each element or pole was 2.7 mm wide, creating a pair of displaced dipolar magnetic elements of pitch of 1.5 pairs per centimetre. Inter-pair flux gradient was 900 Gauss or 1350 Gauss per centimetre.
An aliquot of the niacinamide mixture was applied to both regions without rubbing. A magnetic film (ETP008) was placed in close proximity (approximately 0.5 mm) above the Active region for 5 minutes.
The Tape strip samples were then analysed for niacinamide using a validated mass spectrometry method.

[3] = Active, Total (6-10) tape strips
[4] = Passive, Total (6-10) tape strips

Vitamin E
Penetration of Vitamin E into the skin, in words [1]: much greater penetration

NC(=O)c1cccnc1 [Niacinamide]
Niacinamide penetration, Average ([2]; Active (weak magnetic field, ETP008), Tape Strip 1): 2.907 | Niacinamide penetration, individual columns 1-6 ([2]; Active (weak magnetic field, ETP008, 5 minutes), Tape Strip 1, gel mixture, 30 minutes absorption): 4.463 and 1.099 and 1.021 and 3.47 and 2.739 and 4.647 | Niacinamide penetration, Average ([2]; Active, Tape Strip 2): 2.036 | Niacinamide penetration, individual columns 1-6 ([2]; Active, Tape Strip 2): 1.782 and 0.5649 and 1.07 and 1.211 and 2.226 and 5.364 | Niacinamide penetration, Average ([2]; Active, Tape Strip 3): 1.12 | Niacinamide penetration, individual columns 1-6 ([2]; Active, Tape Strip 3): 1.137 and 0.5147 and 1.116 and 1.035 and 1.694 and 1.226 | Niacinamide penetration, Average ([2]; Active, Tape Strip 4): 0.8796 | Niacinamide penetration, individual columns 1-6 ([2]; Active, Tape Strip 4): 0.9888 and 0.7087 and 1.098 and 0.8548 and 0.8425 and 0.7848 | Niacinamide penetration, Average ([2]; Active, Tape Strip 5): 0.8556 | Niacinamide penetration, individual columns 1-6 ([2]; Active, Tape Strip 5): 0.9146 and 0.7814 and 0.7495 and 0.8808 and 1.167 and 0.6402 | Niacinamide penetration, Average ([2]; Active, Tape Strip 6): 0.7575 | Niacinamide penetration, individual columns 1-6 ([2]; Active, Tape Strip 6): 0.895 and 0.8145 and 0.5287 and 0.8757 and 0.7531 and 0.6777 | Niacinamide penetration, Average ([2]; Active, Tape Strip 7): 0.6674 | Niacinamide penetration, individual columns 1-6 ([2]; Active, Tape Strip 7): 0.6261 and 0.5502 and 0.4859 and 0.6321 and 0.6608 and 1.049 | Niacinamide penetration, Average ([2]; Active, Tape Strip 8): 0.5672 | Niacinamide penetration, individual columns 1-6 ([2]; Active, Tape Strip 8): 0.4149 and 0.7107 and 0.4741 and 0.5541 and 0.5753 and 0.6739 | Niacinamide penetration, Average ([2]; Active, Tape Strip 9): 0.4439 | Niacinamide penetration, individual columns 1-6 ([2]; Active, Tape Strip 9): 0.4666 and 0.5396 and 0.4059 and 0.4627 and 0.4898 and 0.2985 | Niacinamide penetration, Average ([2]; Active, Tape Strip 10): 0.3798 | Niacinamide penetration, individual columns 1-6 ([2]; Active, Tape Strip 10): 0.4229 and 0.3982 and 0.3809 and 0.2336 and 0.5187 and 0.3243 | Niacinamide penetration, Average [2, 3]: 2.816 | Niacinamide penetration, individual columns 1-6 [2, 3]: 2.826 and 3.013 and 2.276 and 2.758 and 2.998 and 3.024 | Niacinamide penetration, Average ([2]; Passive (no weak magnetic field), Tape Strip 1): 2.428 | Niacinamide penetration, individual columns 1-6 ([2]; Passive (no weak magnetic field), Tape Strip 1, gel mixture, 30 minutes absorption): 4.785 and 1.997 and 0.8068 and 3.16 and 2.0563 and 1.761 | Niacinamide penetration, Average ([2]; Passive, Tape Strip 2): 1.353 | Niacinamide penetration, individual columns 1-6 ([2]; Passive, Tape Strip 2): 1.077 and 0.9778 and 1.464 and 0.9842 and 1.846 and 1.768 | Niacinamide penetration, Average ([2]; Passive, Tape Strip 3): 1.193 | Niacinamide penetration, individual columns 1-6 ([2]; Passive, Tape Strip 3): 0.6071 and 0.8166 and 1.131 and 1.06 and 1.456 and 2.085 | Niacinamide penetration, Average ([2]; Passive, Tape Strip 4): 0.9603 | Niacinamide penetration, individual columns 1-6 ([2]; Passive, Tape Strip 4): 0.4947 and 1.297 and 0.8954 and 0.5456 and 0.8406 and 1.689 | Niacinamide penetration, Average ([2]; Passive, Tape Strip 5): 0.8282 | Niacinamide penetration, individual columns 1-6 ([2]; Passive, Tape Strip 5): 0.5925 and 0.8516 and 0.935 and 0.6655 and 0.6213 and 1.303 | Niacinamide penetration, Average ([2]; Passive, Tape Strip 6): 0.6176 | Niacinamide penetration, individual columns 1-6 ([2]; Passive, Tape Strip 6): 0.5736 and 0.5759 and 0.7258 and 0.5432 and 0.6385 and 0.6487 | Niacinamide penetration, Average ([2]; Passive, Tape Strip 7): 0.6112 | Niacinamide penetration, individual columns 1-6 ([2]; Passive, Tape Strip 7): 0.5936 and 0.4867 and 0.5056 and 0.622 and 0.5467 and 0.9127 | Niacinamide penetration, Average ([2]; Passive, Tape Strip 8): 0.4614 | Niacinamide penetration, individual columns 1-6 ([2]; Passive, Tape Strip 8): 0.5657 and 0.4006 and 0.4313 and 0.3634 and 0.4878 and 0.5195 | Niacinamide penetration, Average ([2]; Passive, Tape Strip 9): 0.3664 | Niacinamide penetration, individual columns 1-6 ([2]; Passive, Tape Strip 9): 0.3146 and 0.4048 and 0.4168 and 0.4248 and 0.2422 and 0.3954 | Niacinamide penetration, Average ([2]; Passive, Tape Strip 10): 0.3966 | Niacinamide penetration, individual columns 1-6 ([2]; Passive, Tape Strip 10): 0.3563 and 0.5215 and 0.2107 and 0.4442 and 0.3186 and 0.5283 | Niacinamide penetration, Average [2, 4]: 2.453 | Niacinamide penetration, individual columns 1-6 [2, 4]: 2.404 and 2.39 and 2.29 and 2.398 and 2.234 and 3.005
